Values of other authors as cited in patent US6106863A, “Sustained-release metal valproate tablets” (priority 1996, dated 2000).

Columns and labels:
[1] = in vivo

## CCCC(CCC)C(=O)[O-].[Na+] [Sodium valproate]
[1]
  biological half-life (in words): short biological half-life
  effective blood concentration: 50 to 100 µg/mL
other
  water solubility (in words): water-soluble
